Test results reported in patent EP0381422B1, “Tetrahydrobenzimidazole derivatives” (YAMANOUCHI PHARMACEUTICAL CO. LTD., priority 1989, dated 1990).

Tested on: 5-HT3 receptor
Test: Antagonism against 5-HT3-receptor: inhibition of serotonin-induced Bezold-Jarish (BJ) reflex in anesthetized rats
Type: in vivo, Wistar male rats
Description: Antagonism Against 5-HT3-Receptor
Nine-week-old Wistar male rats were anesthetized by intravenous injection of 1 g/kg of urethane, and blood pressure and heart rate were measured under artificial respiration. Transient reduction in heart rate and blood pressure induced by intravenous administration of serotonin or 2-methylserotonin which is a selective agonist of 5-HT3 was taken as an index of the reaction via 5-HT3 receptor [Bezold-Jarish reflex; Paintal, A.S., Pysiolo. Rev., Vol. 53, p.
Inhibitory activity of compounds of the present invention on serotonin-induced Bezold-Jarish (BJ) reflex in rats is shown in Table 1.

Row | SMILES | BJ Reflex Inhibitory Activity (ED50; µg/kg, i.v.) [µg/kg]
1 | O=C(C1CCc2nc[nH]c2C1)N1CCc2ccccc21.O=C(O)/C=C/C(=O)O (centres unmarked) [Example 2, 5-[(2,3-Dihydroindol-1-yl)carbonyl]-4,5,6,7-tetrahydrobenzimidazole fumarate] | 0.29
2 | O=C(C1CCc2nc[nH]c2C1)n1c(=O)[nH]c2ccccc21 (centres unmarked) [Example 9, 1-[(4,5,6,7-tetrahydrobenzimidazol-5-yl)carbonyl]-2,3-dihydrobenzimidazol-2-one] | 0.80
